Legend:
[1] = Stability of D-Trp and D-2-methyl-Trp in 1% solutions, peak area by HPLC; format: physicochemical; settings: pH 2.2 citrate buffer, dark, helium (FIG. 1) and pH 5.4 acetate buffer, oxygen, constant light (FIG. 2)
[2] = Acute cardiovascular toxicity in the rat, single i.v. dose, mortality; format: in vivo; settings: observed up to 4 hours
Description: These two peptides were also tested for acute cardiovascular toxicity in the rat.
Dosages were calculated on the basis of the declared peptide content in each product, as specified below:
A single dose of HEXARELIN or GHRP-6 was administered to rats in different calendar dates in such a way that each group/dose should be treated in two subsequent days.
For each compound, appropriate amounts of solutions in 0.9% NaCl for injection were prepared just before treatment at the suitable concentrations. The solutions were sterilized by filtration (Millipore filter, pore size 0.22 μm). Owing to the type of the study (acute study) in which formulates were administered just after preparation, stability checks were not performed. Concentration checks were also not performed. The volume of solution injected was maintained constant at 1 ml/Kg.
The intravenous injections were done as a single dose in one vein of the tail with an appropriately gauged sterile, disposable, plastic syringe. The injection rate was about 0.1 ml/sec.
Periodical observations were made up to 4 hours after treatment. Abnormality and mortality were recorded. Body weight was recorded once during pre-trial and on the administration day to calculate the volumes to be injected.

[3] = system: pituitary cell monolayers; test: GH-releasing activity in pituitary cell culture (monolayers); format: cell-based, Sprague Dawley rats; settings: for GH in medium: 2 hours incubation
Description: (§1) Male Sprague Dawley rats (Charles River, Calco, Italy) of 2-3 months of age were used. Rats were housed at 22 +2° C., with lighting cycle of 14 h light: 10 h dark (lights on from 06.00 to 20.00 h), at least 10 days before starting the experiments. A standard dry diet and water were available ad libitum.
Pituitary tissue used for cell dissociation included only the anterior lobe. Briefly, pituitary glands were collected in sterile F-10 medium and after cutting into small fragments incubated twice (30 minutes each) at 37° C. in F-10 medium containing 6% fetal calf serum and collagenase (2.5 mg/ml) (Boehringer, Mannheim GmbH, Germany). Fragments were then washed in Dulbecco's PBS, Ca^2+ and Mg^2+ free medium and mechanically dissociated. Single cell suspension was planted onto 24-well (2×10^5 cells/well) culture plates. The cells were incubated in F-10 medium supplemented with 10% horse serum, 4% fetal calf serum and gentamycin (25 μg/ml), in a humidified atmosphere of 5% CO2 and 95% air at 37° C.
After 3 days, the medium was removed and the cells washed twice with serum free F-10, then incubated with 1 ml of F-10 containing 0.1% BSA only, or with added various concentrations of synthetic peptides.
After incubation for 2 h at 37° C., media were collected and stored frozen at -20° C. until assayed for measurement of GH content.
(§2) Medium and plasma GH was measured by radioimmunoassay using materials supplied by the NIADDK Bethesda, Md. Values were expressed in term of NIASSK-rat-GH-RP-2 standard (potency 2 IU/ml), as ng/ml of medium or plasma.
(§3) The minimum detectable value of rat was 1.0 ng/ml; intra-assay variability was 6%. To avoid inter-assay variation, samples from each experiment were assayed simultaneously.

[4] = system: GH release; test: GH response in conscious, freely-moving rats after antiserum pretreatment and i.v. peptide; format: in vivo; settings: i.v. 25 μg/kg peptide, pooled over antiserum pretreatments
Description: Sixty male rats were prepared with indwelling venous catheters under ether anesthesia three days before experimentation. On the day of experimentation, all animals were given an iv heparin injection (100 IU; 0630 h). At 0700 h, animals were treated with 0.5 ml of either normal serum (control-as), somatostatin antiserum (somatostatin-as; 0.25 ml+0.25 ml saline), growth hormone-releasing hormone antiserum (GHRH-as; 0.25 ml+0.25 ml saline), or both somatostatin antiserum and growth hormone-releasing hormone antiserum (0.25 ml somatostatin-as+0.25 ml GHRH-as). Blood sampling began […] after antiserum pretreatment, with blood samples collected every 20 minutes for three hours. After the 180 minute sample (1100 h), animals were treated iv with 25 μg/kg of either Hexarelin or GHRP-6. Blood samples were then collected at 5, 10, 15, 20 30, 40, and 60 minutes after peptide treatment. All samples were centrifuged immediately and the plasma frozen until assayed. The peak GH response to Hexarelin and GHRP-6 as well as the area under the response curves (AUCs) for the thirty minutes following peptide injection were calculated. Data were subjected to repeated measures analysis of variance and are expressed as mean ±SEM.

[5] = system: GH release; test: GH release in pentobarbital-anesthetized rats, s.c.; format: in vivo, Sprague Dawley rats
Description: Male Sprague Dawley rats weighing 225-250 g were divided in groups of five animals each. Rats were anesthetized with Nembutal injected intraperiteonally at 50 mg/kg, fifteen minutes prior to the first blood withdrawal taken over heparin by cardiac puncture (for determination of basal GH).
Subcutaneous injections of either HEXARELIN or GHRP-6 were given immediately after the first blood collection, and additional blood samples were collected 15 and 40 minutes later.
Measurement of rat GH was performed by a standard double antibody radioimmunoassay with reagents supplied by the National Pituitary Agency and the National Institute of Arthritis, Diabetes, and Digestive and Kidney Diseases. The standards used were NIADDK-NIH-rGH-RP-2. Statistical data were obtained with the Student's t Test at a significance level of 5%.

[6] = system: GH release; test: GH-releasing activity i.v. in male rats anesthetized with ketamine and xilazine; format: in vivo, Sprague Dawley rats
Description: as §1
(§4) Between 09.00-10.00 h rats were anesthetized with ketamine (58 mg/kg, Inoketam, VIRBAC, Milano) and xilazine (12 mg/kg, Rompun, Bayer, Milano). Thirty minutes later, a blood sample ([…]) was withdrawn from the exposed jugular vein, peptides were injected intravenously or subcutaneously, and further blood samples were collected 10, 20 and 30 minutes later.
as §2, §3

[7] = system: GH release; test: GH-releasing activity s.c. in male rats anesthetized with ketamine and xilazine; format: in vivo, Sprague Dawley rats
Description: as §1, §4, §2, §3

[8] = system: plasma testosterone; format: in vivo, Beagle dogs
Source text: After an initial flare-up, plasma testosterone fell below castration levels after approximately 10 days, and was maintained for approximately 180 days.

[9] = PLGA implant rods, 20 or 25% loading (7 or 10 mg), subcutaneous

In the case of `N[C@H](Cc1c[nH]c2ccccc12)C(=O)O` [D-Trp, D-Tryptophan, reference compound], the “time the compound is stable in solution (HPLC peak area)” value [1] is reported as “about 20 days”.
For `Cc1[nH]c2ccccc2c1C[C@@H](N)C(=O)O` [Example 1, 2-methyl-D-tryptophan], the “time the compound is stable in solution (HPLC peak area)” value [1] was at least 60 days.
In the case of GHRP-6 [reference compound], the “Dead rats/Total N° of rats per group” value ([2]; single i.v. dose 2.5 mg/kg) is reported as 0/6, the “Dead rats/Total N° of rats per group” value ([2]; single i.v. dose 5.0 mg/kg) is reported as 1/6 and the “Dead rats/Total N° of rats per group” value ([2]; single i.v. dose 7.5 mg/kg) is reported as 2/6. For the same molecule, the GH in medium ([3]; 10^-6 M) was 510.0 ± 12.0 ng/well, the GH in medium ([3]; 10^-7 M) was 526.5 ± 19.0 ng/well and the GH in medium ([3]; 10^-8 M) was 544.2 ± 23.9 ng/well. The “GH secretion versus basal” value ([3]; 10^-8 to 10^-6 M, two hours) was “stimulation of GH secretion over basal secretion”, the “Mean GH” value [4] was 131 ± 13 ng/mL and the “Peak GH” value [4] was 293 ± 41 ng/mL. For the same molecule, the “GH AUC” value ([4]; thirty minutes following injection) was 4220 ± 665 ng/ml/30 min, the “POST-DRUG PLASMA GH” value ([5]; s.c. 25 μg/kg, 0 min (basal)) was 41 ± 16 ng/mL and the “POST-DRUG PLASMA GH” value ([5]; s.c. 25 μg/kg, 15 min) was 222 ± 95 ng/mL. For the same molecule, the “POST-DRUG PLASMA GH” value ([5]; s.c. 25 μg/kg, 40 min) was 110 ± 47 ng/mL, the “POST-DRUG PLASMA GH” value ([5]; s.c. 50 μg/kg, 0 min (basal)) was 57 ± 39 ng/mL and the “POST-DRUG PLASMA GH” value ([5]; s.c. 50 μg/kg, 15 min) was 262 ± 58 ng/mL. The “POST-DRUG PLASMA GH” value ([5]; s.c. 50 μg/kg, 40 min) was 97 ± 44 ng/mL, the “plasma GH” value ([6]; i.v. 150 μg/kg, 10 min) was 394.0 ± 31.0 ng/mL and the “plasma GH” value ([6]; i.v. 150 μg/kg, 20 min) was 139.3 ± 10.2 ng/mL. The “plasma GH” value ([6]; i.v. 150 μg/kg, 30 min) was 42.5 ± 4.5 ng/mL, the “plasma GH” value ([6]; i.v. 150 μg/kg, time 0 min (before injection)) was 30.2 ± 7.8 ng/mL and the “plasma GH” value ([6]; i.v. 300 μg/kg, 10 min) was 413.6 ± 21.5 ng/mL. The “plasma GH” value ([6]; i.v. 300 μg/kg, 20 min) was 162.7 ± 22.1 ng/mL, the “plasma GH” value ([6]; i.v. 300 μg/kg, 30 min) was 38.2 ± 7.7 ng/mL and the “plasma GH” value ([6]; i.v. 300 μg/kg, time 0 min (before injection)) was 21.9 ± 4.4 ng/mL. The “plasma GH” value ([6]; i.v. 600 μg/kg, 10 min) was 542.0 ± 38.0 ng/mL, the “plasma GH” value ([6]; i.v. 600 μg/kg, 20 min) was 195.5 ± 11.0 ng/mL and the “plasma GH” value ([6]; i.v. 600 μg/kg, time 0 min (before injection)) was 21.2 ± 6.1 ng/mL. The “plasma GH” value ([7]; s.c. 150 μg/kg, 10 min) was 63.1 ± 11.0 ng/mL, the “plasma GH” value ([7]; s.c. 150 μg/kg, 20 min) was 110.4 ± 18.0 ng/mL and the “plasma GH” value ([7]; s.c. 150 μg/kg, 30 min) was 77.2 ± 14.0 ng/mL. For the same molecule, the “plasma GH” value ([7]; s.c. 150 μg/kg, time 0 min (before injection)) was 20.0 ± 5.0 ng/mL, the “plasma GH” value ([7]; s.c. 300 μg/kg, 10 min) was 63.9 ± 12.8 ng/mL and the “plasma GH” value ([7]; s.c. 300 μg/kg, 20 min) was 123.4 ± 14.6 ng/mL. The “plasma GH” value ([7]; s.c. 300 μg/kg, 30 min) was 87.7 ± 11.8 ng/mL, the “plasma GH” value ([7]; s.c. 300 μg/kg, time 0 min (before injection)) was 20.0 ± 6.0 ng/mL and the “plasma GH” value ([7]; s.c. 600 μg/kg, 10 min) was 93.1 ± 22.3 ng/mL. The “plasma GH” value ([7]; s.c. 600 μg/kg, 20 min) was 167.1 ± 14.7 ng/mL, the “plasma GH” value ([7]; s.c. 600 μg/kg, 30 min) was 107.8 ± 9.5 ng/mL and the “plasma GH” value ([7]; s.c. 600 μg/kg, time 0 min (before injection)) was 18.0 ± 4.0 ng/mL.
In the case of “Pyro-Glu-His-Ser-Tyr-D-2-alkyl-Trp-Leu-Arg-Pro-NHCH2 CH3 [Example 3]”, the “time plasma testosterone was maintained below castration levels” value [8, 9] is reported as “approximately 180 days”, the “time until plasma testosterone fell below castration levels” value [8, 9] is reported as “approximately 10 days” and the “response to stimulation by i.v. administration of the peptide” value ([8]; day 145 after implant) is reported as “absence of response”. For the same molecule, the “clinical side effects” value ([8]; dog, in vivo, sc) was “No clinical side effects were observed”.

Reference: US5635379A, “D-2-alkyl-tryptophan and peptides containing same” (Deghenghi; Romano, priority 1990, dated 1997)
